{
  "source": "ChEMBL document CHEMBL1201862",
  "about": "“PubChem BioAssay data set” (2004)",
  "key": {"[1]": {"target": "DNA dC->dU-editing enzyme APOBEC-3A (Homo sapiens, UniProt P31941)", "test": "Dose Response confirmation of small molecule APOBEC3A DNA Deaminase Inhibitors via a fluorescence-based single-stranded DNA deaminase assay. [Related pubchem assays (depositor defined):AID493011, AID493024]", "type": "functional"}, "[2]": {"target": "DNA dC->dU-editing enzyme APOBEC-3G (Homo sapiens, UniProt Q9HC16)", "type": "functional"}, "[3]": {"test": "THP-1 cell cytotoxicity, dose response, cytotoxicity control for non-replicating M. tuberculosis project (AID 489025)", "type": "functional"}, "[4]": {"test": "HepG2 cell cytotoxicity, dose response, cytotoxicity control for non-replicating M. tuberculosis project (AID 489018)", "type": "functional", "details": "Mycobacterium tuberculosis"}, "[5]": {"target": "T1, Ubiquitin-conjugating enzyme E2 N (Homo sapiens, UniProt P61088)", "T1 sequence (P61088 whole entry)": "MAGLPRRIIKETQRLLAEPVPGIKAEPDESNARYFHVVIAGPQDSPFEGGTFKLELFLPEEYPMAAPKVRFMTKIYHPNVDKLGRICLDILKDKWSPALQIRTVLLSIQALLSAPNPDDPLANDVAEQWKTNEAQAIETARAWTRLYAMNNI", "type": "functional"}, "[6]": {"test": "Vero E6 cell cytotoxicity, dose response, cytotoxicity control for non-replicating M. tuberculosis project, secondary assay (AID 492998)", "type": "functional, VeroE6", "details": "Vero C1008"}, "[7]": {"target": "T2, Microphthalmia-associated transcription factor (Homo sapiens, UniProt O75030)", "T2 sequence (O75030 whole entry)": "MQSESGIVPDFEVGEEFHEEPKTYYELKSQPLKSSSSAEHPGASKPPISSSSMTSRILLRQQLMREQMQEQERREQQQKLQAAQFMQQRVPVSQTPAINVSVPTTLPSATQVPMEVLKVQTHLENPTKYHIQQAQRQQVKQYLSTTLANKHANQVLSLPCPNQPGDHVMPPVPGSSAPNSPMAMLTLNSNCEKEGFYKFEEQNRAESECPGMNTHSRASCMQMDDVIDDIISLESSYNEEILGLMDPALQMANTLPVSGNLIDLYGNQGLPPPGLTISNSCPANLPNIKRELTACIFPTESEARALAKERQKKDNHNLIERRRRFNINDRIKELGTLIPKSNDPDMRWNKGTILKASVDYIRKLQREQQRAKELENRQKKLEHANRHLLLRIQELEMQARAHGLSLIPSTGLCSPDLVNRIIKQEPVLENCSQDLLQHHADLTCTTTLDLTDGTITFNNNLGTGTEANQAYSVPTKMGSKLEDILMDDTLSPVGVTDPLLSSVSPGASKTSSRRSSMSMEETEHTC", "test": "TRPM1 promoter luciferase signal decrease, dose response, MITF inhibitor project, cell-based, SK-MEL-5, cherry-picked, set 3 (AID 493073)", "type": "functional"}, "[8]": {"test": "cells", "type": "functional"}, "[9]": {"system": "A-375", "test": "A375 melanoma cell viability reduction, dose response, counter-screen for MITF modulator project, cherry-pick samples, set 2 (AID 540335)", "type": "functional, cell-based", "details": "Homo sapiens"}, "[10]": {"test": "MDA-MB-231 cell growth inhibition, dose response, cytotoxicity control for RAD54 inhibitor project, CellTiter-Glo luminescence, cherry-pick (AID 651692)", "type": "functional, cell-based"}, "[11]": {"target": "T3, DNA repair and recombination protein RAD54-like (Homo sapiens, UniProt Q92698)", "T3 sequence (Q92698 whole entry)": "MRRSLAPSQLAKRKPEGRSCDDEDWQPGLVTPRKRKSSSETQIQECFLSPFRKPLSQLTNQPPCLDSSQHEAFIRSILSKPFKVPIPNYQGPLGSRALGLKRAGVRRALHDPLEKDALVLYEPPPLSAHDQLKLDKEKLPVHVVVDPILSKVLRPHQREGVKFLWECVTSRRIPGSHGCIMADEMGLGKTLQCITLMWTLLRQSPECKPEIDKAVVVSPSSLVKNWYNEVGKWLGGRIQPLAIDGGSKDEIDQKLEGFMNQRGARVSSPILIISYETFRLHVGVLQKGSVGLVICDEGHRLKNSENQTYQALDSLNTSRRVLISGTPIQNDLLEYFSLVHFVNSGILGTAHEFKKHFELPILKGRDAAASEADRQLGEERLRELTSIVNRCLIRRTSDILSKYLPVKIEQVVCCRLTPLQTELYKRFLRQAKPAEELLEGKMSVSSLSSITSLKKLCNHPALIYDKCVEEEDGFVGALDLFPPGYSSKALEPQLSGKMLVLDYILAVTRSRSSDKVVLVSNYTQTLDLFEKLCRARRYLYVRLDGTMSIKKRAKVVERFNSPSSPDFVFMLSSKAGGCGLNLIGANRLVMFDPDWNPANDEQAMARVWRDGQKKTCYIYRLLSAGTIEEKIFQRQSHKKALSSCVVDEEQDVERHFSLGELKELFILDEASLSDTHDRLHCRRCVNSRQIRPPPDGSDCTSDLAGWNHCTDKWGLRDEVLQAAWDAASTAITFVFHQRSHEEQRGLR", "test": "inhibitors of human RAD54 branch migration, confirmation, biochemical, fluorescence, cherry-picked samples, dose series (AID 651657)", "type": "functional"}, "[12]": {"target": "SWI/SNF-related matrix-associated actin-dependent regulator of chromatin subfamily A member 2 (Homo sapiens, UniProt P51531)", "sequence (P51531 whole entry)": "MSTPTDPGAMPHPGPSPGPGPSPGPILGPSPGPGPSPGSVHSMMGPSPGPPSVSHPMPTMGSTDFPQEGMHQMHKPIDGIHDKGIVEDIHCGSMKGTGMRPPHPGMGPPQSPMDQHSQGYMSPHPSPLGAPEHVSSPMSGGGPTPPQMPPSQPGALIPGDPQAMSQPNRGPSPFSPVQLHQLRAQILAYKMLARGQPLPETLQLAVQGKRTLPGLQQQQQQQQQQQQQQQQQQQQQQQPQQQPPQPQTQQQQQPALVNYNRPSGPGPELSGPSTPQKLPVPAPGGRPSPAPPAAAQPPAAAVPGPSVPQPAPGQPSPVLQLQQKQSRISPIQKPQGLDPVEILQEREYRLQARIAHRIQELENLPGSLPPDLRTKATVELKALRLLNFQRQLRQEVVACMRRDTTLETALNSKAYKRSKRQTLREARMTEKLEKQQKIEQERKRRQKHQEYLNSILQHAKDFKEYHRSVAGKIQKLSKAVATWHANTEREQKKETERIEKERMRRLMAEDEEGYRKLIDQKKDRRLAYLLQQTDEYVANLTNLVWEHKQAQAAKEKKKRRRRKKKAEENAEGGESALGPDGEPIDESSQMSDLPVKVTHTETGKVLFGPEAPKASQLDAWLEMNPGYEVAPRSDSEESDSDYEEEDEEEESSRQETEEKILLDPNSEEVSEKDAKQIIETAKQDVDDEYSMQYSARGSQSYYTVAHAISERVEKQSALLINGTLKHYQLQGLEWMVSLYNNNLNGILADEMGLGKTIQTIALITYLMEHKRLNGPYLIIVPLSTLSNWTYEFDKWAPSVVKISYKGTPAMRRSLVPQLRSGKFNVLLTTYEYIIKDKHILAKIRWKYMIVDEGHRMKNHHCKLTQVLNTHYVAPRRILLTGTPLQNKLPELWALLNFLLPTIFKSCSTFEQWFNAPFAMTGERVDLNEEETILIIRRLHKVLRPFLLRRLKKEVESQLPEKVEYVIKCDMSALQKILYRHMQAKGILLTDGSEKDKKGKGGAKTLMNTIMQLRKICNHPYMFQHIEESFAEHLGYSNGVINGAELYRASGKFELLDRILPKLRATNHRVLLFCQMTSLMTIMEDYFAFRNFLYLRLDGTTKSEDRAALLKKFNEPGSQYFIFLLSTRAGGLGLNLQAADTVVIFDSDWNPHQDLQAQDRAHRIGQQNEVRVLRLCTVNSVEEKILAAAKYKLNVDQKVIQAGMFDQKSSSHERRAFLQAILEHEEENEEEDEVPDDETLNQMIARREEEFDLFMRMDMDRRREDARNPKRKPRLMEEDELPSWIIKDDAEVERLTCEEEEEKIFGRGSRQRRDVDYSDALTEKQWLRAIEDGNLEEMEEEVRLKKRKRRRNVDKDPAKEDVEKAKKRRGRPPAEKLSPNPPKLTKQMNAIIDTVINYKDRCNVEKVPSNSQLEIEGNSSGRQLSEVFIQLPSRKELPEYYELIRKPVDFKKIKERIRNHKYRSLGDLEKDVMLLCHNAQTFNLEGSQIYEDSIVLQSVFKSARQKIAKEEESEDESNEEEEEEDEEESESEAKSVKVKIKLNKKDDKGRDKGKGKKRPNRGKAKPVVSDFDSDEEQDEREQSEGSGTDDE", "test": "Luminescence-based cell-based high throughput dose response assay to identify activators of the function of SWI/SNF related, matrix associated, actin dependent regulator of chromatin, subfamily a, member 2 (SMARCA2, BRM).", "type": "functional"}, "[13]": {"test": "Counterscreen for activators of the function of SWI/SNF related, matrix associated, actin dependent regulator of chromatin, subfamily a, member 2 (SMARCA2, BRM): Luminescence-based cell-based high throughput dose response assay to identify non-selective compounds using the VP16 reporter assay.", "type": "functional"}, "[14]": {"target": "Prothrombin (Homo sapiens, UniProt P00734)", "test": "Thrombin 1536 HTS Dose Response Confirmation. [Related pubchem assays: 1046 (Thrombin 1536 HTS; hits were confirmed in this assay)]", "type": "functional"}, "[15]": {"target": "DNA damage-inducible transcript 3 protein (Mus musculus, UniProt P35639)", "type": "functional, Cricetulus griseus"}, "[16]": {"target": "T4, Replicative DNA helicase DnaB (Mycobacterium tuberculosis, UniProt P9WMR3)", "T4 sequence (P9WMR3 whole entry)": "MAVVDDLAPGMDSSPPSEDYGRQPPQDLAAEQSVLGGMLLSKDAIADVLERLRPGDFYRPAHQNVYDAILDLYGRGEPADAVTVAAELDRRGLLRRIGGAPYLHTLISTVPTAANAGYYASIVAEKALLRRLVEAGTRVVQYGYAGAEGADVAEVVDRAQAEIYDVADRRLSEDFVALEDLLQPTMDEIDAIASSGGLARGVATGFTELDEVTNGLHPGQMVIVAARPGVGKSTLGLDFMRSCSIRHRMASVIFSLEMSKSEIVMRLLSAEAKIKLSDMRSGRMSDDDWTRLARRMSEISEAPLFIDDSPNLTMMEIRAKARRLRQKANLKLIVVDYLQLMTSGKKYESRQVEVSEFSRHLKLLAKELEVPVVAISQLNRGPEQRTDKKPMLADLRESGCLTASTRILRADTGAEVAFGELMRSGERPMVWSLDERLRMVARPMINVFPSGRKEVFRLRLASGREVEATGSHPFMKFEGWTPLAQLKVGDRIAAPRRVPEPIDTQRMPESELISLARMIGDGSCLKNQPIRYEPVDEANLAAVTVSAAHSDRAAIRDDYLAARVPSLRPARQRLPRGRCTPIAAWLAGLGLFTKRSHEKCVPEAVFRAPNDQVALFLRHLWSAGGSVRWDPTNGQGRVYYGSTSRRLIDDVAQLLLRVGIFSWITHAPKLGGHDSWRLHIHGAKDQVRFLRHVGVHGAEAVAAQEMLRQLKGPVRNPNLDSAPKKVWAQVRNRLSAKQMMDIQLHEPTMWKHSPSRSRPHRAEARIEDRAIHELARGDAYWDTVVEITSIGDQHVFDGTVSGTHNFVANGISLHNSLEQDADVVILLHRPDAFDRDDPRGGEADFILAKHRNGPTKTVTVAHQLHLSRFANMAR", "test": "DnaB intein splicing inhibitors, dose response, biochemical, cell-free fluorescence (AID 449749)", "type": "functional"}, "[17]": {"target": "T5, Protein RecA (Mycobacterium tuberculosis, UniProt P9WHJ3)", "T5 sequence (P9WHJ3 whole entry)": "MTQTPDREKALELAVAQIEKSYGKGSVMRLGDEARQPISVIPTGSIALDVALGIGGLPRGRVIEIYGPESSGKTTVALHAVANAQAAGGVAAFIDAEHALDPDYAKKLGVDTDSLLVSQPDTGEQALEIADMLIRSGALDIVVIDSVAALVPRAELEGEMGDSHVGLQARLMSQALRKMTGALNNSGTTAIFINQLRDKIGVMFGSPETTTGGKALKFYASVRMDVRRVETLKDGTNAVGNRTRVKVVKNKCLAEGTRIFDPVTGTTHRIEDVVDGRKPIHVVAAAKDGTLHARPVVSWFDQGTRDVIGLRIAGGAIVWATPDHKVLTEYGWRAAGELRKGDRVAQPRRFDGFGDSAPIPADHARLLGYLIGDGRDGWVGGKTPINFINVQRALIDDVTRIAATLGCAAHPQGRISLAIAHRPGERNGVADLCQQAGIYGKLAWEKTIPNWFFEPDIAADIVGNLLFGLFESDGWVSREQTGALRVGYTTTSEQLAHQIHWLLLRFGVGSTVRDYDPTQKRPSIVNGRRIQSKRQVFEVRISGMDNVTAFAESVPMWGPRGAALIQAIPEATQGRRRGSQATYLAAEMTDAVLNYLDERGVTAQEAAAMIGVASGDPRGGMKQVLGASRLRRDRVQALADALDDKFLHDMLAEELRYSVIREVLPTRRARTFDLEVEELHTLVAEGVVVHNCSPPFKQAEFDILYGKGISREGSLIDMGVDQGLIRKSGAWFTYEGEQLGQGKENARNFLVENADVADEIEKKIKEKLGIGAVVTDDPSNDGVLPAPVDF", "test": "Fluorescence Cell-Free Homogeneous Dose Retest to Identify Inhibitors of RecA-Intein Splicing Activity. [Related pubchem assays (depositor defined):AID2097, AID2223, AID489010, AID492950]", "type": "functional"}, "[18]": {"target": "Genome polyprotein (dengue virus type 2, UniProt P29990)", "sequence (P29990 2492-3391 limits assumed)": "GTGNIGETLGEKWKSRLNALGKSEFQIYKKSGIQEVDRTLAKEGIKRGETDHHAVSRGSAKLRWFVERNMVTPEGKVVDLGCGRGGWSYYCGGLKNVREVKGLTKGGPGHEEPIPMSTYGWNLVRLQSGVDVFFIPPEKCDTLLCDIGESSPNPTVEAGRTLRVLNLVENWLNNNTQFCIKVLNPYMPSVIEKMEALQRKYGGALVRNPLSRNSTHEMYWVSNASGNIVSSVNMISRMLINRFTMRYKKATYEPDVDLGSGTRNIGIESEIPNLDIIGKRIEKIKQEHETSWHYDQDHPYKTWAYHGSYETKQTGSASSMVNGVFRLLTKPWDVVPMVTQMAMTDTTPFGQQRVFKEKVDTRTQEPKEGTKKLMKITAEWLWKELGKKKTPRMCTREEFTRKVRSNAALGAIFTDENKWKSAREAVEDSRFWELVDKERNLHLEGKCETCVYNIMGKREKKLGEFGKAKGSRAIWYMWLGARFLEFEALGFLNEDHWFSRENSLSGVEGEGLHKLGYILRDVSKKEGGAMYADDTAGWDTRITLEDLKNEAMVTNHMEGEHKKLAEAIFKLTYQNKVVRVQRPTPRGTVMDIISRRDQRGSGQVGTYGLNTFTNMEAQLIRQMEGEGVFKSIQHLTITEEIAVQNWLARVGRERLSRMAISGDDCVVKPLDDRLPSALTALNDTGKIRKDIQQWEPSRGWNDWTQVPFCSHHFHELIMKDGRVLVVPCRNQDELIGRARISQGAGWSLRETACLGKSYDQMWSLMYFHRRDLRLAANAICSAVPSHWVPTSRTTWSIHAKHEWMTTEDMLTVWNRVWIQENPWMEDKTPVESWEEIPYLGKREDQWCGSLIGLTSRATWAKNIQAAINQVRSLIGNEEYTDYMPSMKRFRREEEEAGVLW", "test": "Dengue-2 NS5 methyltransferase inhibitors, primary screen, biochemical, confirmation dose response (AID 588689)", "type": "functional"}, "[19]": {"target": "T6, Fatty acid synthase (Homo sapiens, UniProt P49327)", "T6 sequence (P49327 whole entry, the tested form may be a part)": "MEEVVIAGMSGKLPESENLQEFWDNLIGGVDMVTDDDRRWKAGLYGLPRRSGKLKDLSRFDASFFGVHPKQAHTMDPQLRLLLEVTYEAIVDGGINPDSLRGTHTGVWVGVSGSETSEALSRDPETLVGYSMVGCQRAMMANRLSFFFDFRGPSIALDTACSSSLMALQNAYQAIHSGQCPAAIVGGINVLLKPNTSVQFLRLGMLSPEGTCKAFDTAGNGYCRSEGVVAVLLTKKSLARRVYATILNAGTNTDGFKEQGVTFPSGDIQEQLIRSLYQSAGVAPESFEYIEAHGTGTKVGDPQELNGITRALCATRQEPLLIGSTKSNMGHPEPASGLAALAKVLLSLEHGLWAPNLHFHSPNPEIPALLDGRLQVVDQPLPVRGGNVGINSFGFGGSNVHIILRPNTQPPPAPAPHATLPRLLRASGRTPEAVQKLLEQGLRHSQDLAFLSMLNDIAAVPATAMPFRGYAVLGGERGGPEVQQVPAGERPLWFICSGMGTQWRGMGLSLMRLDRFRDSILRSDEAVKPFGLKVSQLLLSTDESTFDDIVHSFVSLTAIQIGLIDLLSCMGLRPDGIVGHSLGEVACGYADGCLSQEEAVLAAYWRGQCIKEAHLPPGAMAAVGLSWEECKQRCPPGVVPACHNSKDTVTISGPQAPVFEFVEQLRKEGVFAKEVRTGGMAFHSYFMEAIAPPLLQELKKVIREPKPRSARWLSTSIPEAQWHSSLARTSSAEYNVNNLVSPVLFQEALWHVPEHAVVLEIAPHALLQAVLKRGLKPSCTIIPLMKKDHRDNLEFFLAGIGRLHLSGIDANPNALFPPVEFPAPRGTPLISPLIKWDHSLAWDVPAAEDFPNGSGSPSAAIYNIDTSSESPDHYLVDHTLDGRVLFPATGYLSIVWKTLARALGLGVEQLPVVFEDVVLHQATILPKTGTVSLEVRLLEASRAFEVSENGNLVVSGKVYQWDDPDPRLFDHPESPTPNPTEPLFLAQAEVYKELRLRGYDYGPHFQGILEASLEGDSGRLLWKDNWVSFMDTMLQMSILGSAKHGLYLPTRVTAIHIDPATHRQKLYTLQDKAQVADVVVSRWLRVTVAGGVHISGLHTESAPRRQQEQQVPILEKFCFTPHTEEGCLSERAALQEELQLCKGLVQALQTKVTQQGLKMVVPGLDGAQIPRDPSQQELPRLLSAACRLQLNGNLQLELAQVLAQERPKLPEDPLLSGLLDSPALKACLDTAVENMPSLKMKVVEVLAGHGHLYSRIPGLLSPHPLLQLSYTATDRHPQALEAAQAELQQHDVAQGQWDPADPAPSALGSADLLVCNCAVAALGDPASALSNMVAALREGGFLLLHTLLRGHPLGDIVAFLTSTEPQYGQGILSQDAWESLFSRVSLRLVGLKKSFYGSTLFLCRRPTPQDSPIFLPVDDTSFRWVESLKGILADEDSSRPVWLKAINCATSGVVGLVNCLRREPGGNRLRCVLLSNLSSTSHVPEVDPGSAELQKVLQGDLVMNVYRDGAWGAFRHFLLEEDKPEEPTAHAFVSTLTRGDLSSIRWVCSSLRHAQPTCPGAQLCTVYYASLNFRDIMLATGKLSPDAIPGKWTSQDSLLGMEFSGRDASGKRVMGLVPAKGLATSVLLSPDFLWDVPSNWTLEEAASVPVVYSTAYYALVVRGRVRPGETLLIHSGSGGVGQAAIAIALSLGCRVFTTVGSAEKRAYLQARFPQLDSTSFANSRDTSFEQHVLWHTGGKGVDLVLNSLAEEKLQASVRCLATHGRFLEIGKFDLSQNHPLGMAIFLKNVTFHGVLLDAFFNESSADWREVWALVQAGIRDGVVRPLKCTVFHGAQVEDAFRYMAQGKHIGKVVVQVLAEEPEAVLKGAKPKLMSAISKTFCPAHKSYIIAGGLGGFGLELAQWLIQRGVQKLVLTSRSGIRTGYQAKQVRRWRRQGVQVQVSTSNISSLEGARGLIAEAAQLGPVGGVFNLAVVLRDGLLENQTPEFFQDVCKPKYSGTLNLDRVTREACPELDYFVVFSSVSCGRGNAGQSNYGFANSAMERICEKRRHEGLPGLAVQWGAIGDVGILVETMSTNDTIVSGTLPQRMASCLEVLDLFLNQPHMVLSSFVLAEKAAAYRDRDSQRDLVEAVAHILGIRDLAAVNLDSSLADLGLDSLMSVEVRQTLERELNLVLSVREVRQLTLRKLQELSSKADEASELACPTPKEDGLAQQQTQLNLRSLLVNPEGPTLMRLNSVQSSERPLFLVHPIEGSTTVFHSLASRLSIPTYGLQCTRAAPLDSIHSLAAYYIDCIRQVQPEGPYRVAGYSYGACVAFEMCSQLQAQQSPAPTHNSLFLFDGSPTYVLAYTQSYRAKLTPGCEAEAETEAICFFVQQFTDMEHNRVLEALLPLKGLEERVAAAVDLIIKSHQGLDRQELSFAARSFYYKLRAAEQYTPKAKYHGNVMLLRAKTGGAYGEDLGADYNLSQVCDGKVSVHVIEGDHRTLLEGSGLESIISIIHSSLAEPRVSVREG", "test": "FAS thioesterase domain inhibitors, dose response, biochemical, endpoint fluorescence intensity, uHTS hits (AID 624327);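 also: fluorescence from hydrolysis of an O-methyl fluorescein acyl ester substrate by the enzyme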", "type": "functional"}, "[20]": {"target": "T6, Fatty acid synthase", "test": "FAS thioesterase domain inhibitors, dose response, biochemical, kinetic fluorescence intensity (AID 624326);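 also: rate of fluorescence rise from hydrolysis of a fluorogenic O-methyl fluorescein ester substrate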", "type": "functional"}},
  "note": "Active and inactive are the calls of the source.",
  "data": [
    {"smiles": "CC(=O)Nc1nc(CC(C)C)cc(-c2ccco2)c1C#N", "values": [
      {"measurement": "IC50", "setting": "[1]", "result": "4.18 µM (active)"},
      {"measurement": "IC50", "setting": "[2]", "result": "5.76 µM (active)"}
    ]},
    {"smiles": "CCOC(=O)c1c(NC(C)=O)sc2c(OCC(O)CNC(C)(C)C)c(Br)ccc12", "note": "(stereo not given)", "values": [
      {"measurement": "CC50", "setting": "[3]", "result": "12.5 µM (active)"},
      {"measurement": "CC50", "setting": "[4]", "result": "11.9 µM (active)"},
      {"measurement": "IC50", "setting": "[5]", "result": "> 20 µM (inactive)"},
      {"measurement": "CC50", "setting": "[6]", "result": "7.28 µM (active)"},
      {"measurement": "AC50", "setting": "[7]", "result": "7.72 µM (active)"},
      {"measurement": "IC50", "setting": "[8]", "result": "10.2 µM (active)"},
      {"measurement": "AC50", "setting": "[9]", "result": "19.9 µM (active)"},
      {"measurement": "AC50", "setting": "[10]", "result": "21 µM (active)"},
      {"measurement": "AC50", "setting": "[11]", "result": "8.96 µM (active)"},
      {"measurement": "EC50", "setting": "[12]", "result": "> 91.2 µM (inactive)"},
      {"measurement": "EC50", "setting": "[13]", "result": "> 91.2 µM (inactive)"}
    ]},
    {"smiles": "Cc1cc(C)c(S(=O)(=O)ON2C(=O)c3ccccc3C2=O)cc1C", "values": [
      {"measurement": "IC50", "setting": "[14]", "result": "2.57 µM (active)"},
      {"measurement": "Absolute IC50 (CHOP)", "setting": "[15]", "result": 10, "unit": "µM"},
      {"measurement": "AC50", "setting": "[16]", "result": "> 380 µM (inactive)"},
      {"measurement": "EC50", "setting": "[17]", "result": "10.2 µM (active)"},
      {"measurement": "IC50", "setting": "[18]", "result": "76.2 µM (active)"},
      {"measurement": "IC50", "setting": "[19]", "result": "0.744 µM (active)"},
      {"measurement": "IC50", "setting": "[20]", "result": "3.91 µM (active)"}
    ]}
  ]
}
